# Several values for one entry are separate records, joined by “and”; a condition that tells them apart may be missing. Equal entries are not always repeated. Activity calls are given as the source filed them.
# Key:
# [1] = non-specific 3'UTR reporter inhibition in Clone20-Shn3RL – cell-based, Renilla luciferase, cherry-picked, counter-screen for Shn3 inhibitor project, dose response (AID 624133); type: functional
# [2] = Shn3 3'UTR reporter signal decrease – cell-based, Clone20 osteoblasts, firefly luciferase, cherry-pick, set 2, Schnurri-3 inhibitor project, dose response (AID 720490); type: functional;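 also: actives lower the luminescence signal as inhibitors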
# [3] = EF1alpha-driven Renilla reporter with control 3'UTR suppression – Clone20-Shn3RL cells, dual-Glo, cherry-pick, set 2, counter-screen for Shn3 3'UTR targeting project, dose response (AID 720724); type: functional, cell-based; conditions: Dual-Go Shn3RL
# [4] = loss of viability in HepG2 cells – cell-based, CellTiter-Glo, cherry-picked, cytotoxicity control for Shn3 inhibitor project, dose response (AID 624134); type: functional
# [5] = reduction of Shn3 3'UTR-driven luciferase in osteoblasts – cell-based, Clone20 osteoblasts, firefly luciferase, cherry-picked, dose response (AID 624132); type: functional;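 also: firefly luciferase luminescence from reporter carrying the Shn3 3'UTR in osteoblasts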
# [6] = HGIII-sPLA2 enzyme inhibition potency – biochemical, QFRET, IC50, dose response (AID 743457);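 also: green fluorescence rise as the enzyme cleaves BODIPY PC-A2 in liposomes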
# [7] = system: Streptococcus sp. 'group A'; test: Streptococcus pyogenes SK(-)GAS viability under kanamycin – luminescence, BacTiterGlo, confirmation, counter-screen for streptokinase expression inhibitor project, dose response (AID 1900); type: functional, organism-based
# Streptococcus = test: GAS UMAA2166 growth inhibition – luminescence, BacTiterGlo, counter-screen for streptokinase expression inhibitor project, dose response (AID 1915); type: functional, organism-based;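 also: potency for reduction of bacterial viability or growth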
# Prothrombin = Prothrombin (Bos taurus, UniProt P00735); test: thrombin protease inhibitors – biochemical, fluorescence polarization, uHTS hits, dose response (AID 602369); type: functional
# [8] = biological target: 26S proteasome non-ATPase regulatory subunit 14 (Homo sapiens, UniProt O00487); test: inhibition of proteasome subunit RPN11 – biochemical, fluorescence polarization, uHTS hits, confirmation (AID 602368); type: functional
# Caspase-6 = Caspase-6 (Homo sapiens, UniProt P55212); test: inhibition of CASP6 peptide cleavage – biochemical, VEID-R110 fluorescence, cherry-pick, dose response (AID 720632)
# [9] = biological target: 72 kDa type IV collagenase (Homo sapiens, UniProt P08253); test: Dose Response validation of uHTS RPN11 inhibitor hits using a MMP-2 Fluorescence assay.; type: functional
# Kallikrein-7 = Kallikrein-7 (Homo sapiens, UniProt P49862); test: Fluorescence Intensity-based biochemical primary high throughput dose response assay to identify activators of kallikrein-7 (K7) zymogen.
# [10] = alpha-synuclein stem-loop luciferase translation blockers – H4 neuroglioma cells, luminescence, confirmation (AID 1988); type: functional, cell-based
# [11] = Luminescence Cell-Based Dose Response HTS to Identify Inhibitors of 5'UTR Stem-Loop Driven Prion Protein mRNA Translation in H4 Neuroglioblastoma Cells. [Related pubchem assays: 1827 (Project Summary), 1813 (Primary HTS)]; type: functional
# [12] = general mammalian cell viability loss – inhibitor set, cherry-pick, set 2, cytotoxicity control for miR-122 modulator project, dose response (AID 720697); type: functional, cell-based
# [13] = luciferase reporter signal suppression in cells – H4 neuroglioma cells, luminescence, dose response (AID 1990); type: functional, cell-based
# [14] = activation of miR-122 Renilla sensor silencing – cell-based, Huh7 psiCHECK-miR122, Renilla luciferase, cherry-picked, dose response (AID 651956); type: functional;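 also: huh7 hepatoma cells stably carrying a psiCHECK-2 miR-122 sensor plasmid; renilla luciferase signal reporting endogenous miR-122 activity after 48 h compound exposure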
# [15] = biological target: T1, Sentrin-specific protease 1 (Homo sapiens, UniProt Q9P0U3); test: Dose response confirmation of small molecule inhibitors of the catalytic domain of the SUMO protease, SENP1 in a FRET assay.; type: functional; conditions: read-out: IC50_Mean
# [16] = biological target: T1, Sentrin-specific protease 1; test: SENP1 catalytic domain blockers, concentration series – biochemical, kinetic FRET, dose response (AID 651697); type: functional; conditions: read-out: IC50_Mean
# Melanocortin receptor 4 = Melanocortin receptor 4 (Homo sapiens, UniProt P32245); type: functional, cell-based;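 also: Cell-based assay with luminescence read-out, confirmatory dose-response testing for agonist activity of biased ligands at MC4R; human U2OS cells with tagged receptor and beta-arrestin; potency of agonists that increase receptor coupling to beta-arrestin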
# [17] = biological target: ADP-ribosylation factor GTPase-activating protein 1 (Rattus norvegicus, UniProt Q62848); test: Fluorescence polarization-based biochemical high throughput dose response screening assay to identify inhibitors of ADP-ribosylation factor GTPase activating protein 1 (ARFGAP1).; type: functional
# Mu-type opioid receptor = Mu-type opioid receptor (Homo sapiens, UniProt P35372); type: functional, cell-based;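 also: U2OS cells with beta-arrestin recruitment to OPRM1 by beta-gal complementation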
# [18] = biological target: FAD-linked sulfhydryl oxidase ALR (Homo sapiens, UniProt P55789); test: ALR-catalysed DTT oxidation blockers – biochemical, H2O2 detection, luminescence, cherry-pick, dose response (AID 493248)
# [19] = biological target: 5-hydroxytryptamine receptor 2A (Mus musculus, UniProt P35363); type: functional, cell-based;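 also: CHO-K1 cells with tagged receptor and beta-arrestin; agonist potency measured as compound-induced activation of the receptor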
# [20] = biological target: T2, Beta-2 adrenergic receptor (Homo sapiens, UniProt P07550); test: Dose response for HTS for Beta-2AR agonists via FAP method from Powderset1.; type: functional
# [21] = biological target: T2, Beta-2 adrenergic receptor; test: ADRB2 activation measured by internalization – cell-based, FAP fluorogen, flow cytometry, cherry pick 1, dose response (AID 588763); type: functional
# [22] = biological target: Oxysterols receptor LXR-beta (Homo sapiens, UniProt P55055); type: functional, cell-based;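 also: agonist activity at LXR measured by a cell-based luminescence readout across a dose range, run as a counterscreen for daf-12 agonists; HEK293 cells with Gal4-LXR fusion and GAL4-driven luciferase reporter; potency for activation of Gal4-LXR reporter so compounds are agonists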
# [23] = Counterscreen for […] of the human trace amine associated receptor 1 (TAAR1): Fluorescence-based cell-based high throughput dose response assay to identify nonselective Ga16 agonists.; type: functional
# [24] = Counterscreen for antagonists of the human trace amine associated receptor 1 (hTAAR1): Fluorescence-based cell-based high throughput dose response assay to identify nonselective Ga16 antagonists.; type: functional
# T2 sequence (P07550 whole entry): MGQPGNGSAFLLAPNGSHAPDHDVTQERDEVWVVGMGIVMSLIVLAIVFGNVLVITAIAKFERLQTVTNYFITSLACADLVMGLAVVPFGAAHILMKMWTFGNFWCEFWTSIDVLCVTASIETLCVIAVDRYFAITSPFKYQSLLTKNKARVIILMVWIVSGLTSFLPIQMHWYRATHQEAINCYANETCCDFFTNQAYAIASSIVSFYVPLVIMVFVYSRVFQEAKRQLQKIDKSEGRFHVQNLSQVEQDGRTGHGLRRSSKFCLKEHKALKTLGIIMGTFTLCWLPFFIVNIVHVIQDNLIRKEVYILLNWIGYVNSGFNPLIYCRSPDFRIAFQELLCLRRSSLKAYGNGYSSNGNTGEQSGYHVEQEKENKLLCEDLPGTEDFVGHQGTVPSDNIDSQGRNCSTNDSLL
# T1 sequence (Q9P0U3 whole entry, the tested form may be a part): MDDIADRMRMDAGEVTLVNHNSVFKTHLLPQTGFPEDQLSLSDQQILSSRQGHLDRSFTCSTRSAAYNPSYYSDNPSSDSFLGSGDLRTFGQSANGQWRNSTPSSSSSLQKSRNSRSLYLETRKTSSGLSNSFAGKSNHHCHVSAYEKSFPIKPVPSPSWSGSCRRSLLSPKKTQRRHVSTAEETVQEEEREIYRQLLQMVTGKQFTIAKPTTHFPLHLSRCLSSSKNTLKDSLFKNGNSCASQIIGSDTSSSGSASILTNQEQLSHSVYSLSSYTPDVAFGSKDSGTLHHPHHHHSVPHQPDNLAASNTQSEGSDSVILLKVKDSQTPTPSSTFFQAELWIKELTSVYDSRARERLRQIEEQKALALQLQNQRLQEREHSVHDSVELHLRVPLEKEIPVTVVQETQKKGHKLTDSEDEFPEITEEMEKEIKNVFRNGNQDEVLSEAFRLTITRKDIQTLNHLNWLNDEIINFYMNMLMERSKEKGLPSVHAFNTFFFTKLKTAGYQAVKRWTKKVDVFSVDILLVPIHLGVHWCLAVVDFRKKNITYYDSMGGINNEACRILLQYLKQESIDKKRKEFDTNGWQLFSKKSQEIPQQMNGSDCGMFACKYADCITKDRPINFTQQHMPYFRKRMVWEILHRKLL
# Mu-type opioid receptor, sequence (P35372 whole entry): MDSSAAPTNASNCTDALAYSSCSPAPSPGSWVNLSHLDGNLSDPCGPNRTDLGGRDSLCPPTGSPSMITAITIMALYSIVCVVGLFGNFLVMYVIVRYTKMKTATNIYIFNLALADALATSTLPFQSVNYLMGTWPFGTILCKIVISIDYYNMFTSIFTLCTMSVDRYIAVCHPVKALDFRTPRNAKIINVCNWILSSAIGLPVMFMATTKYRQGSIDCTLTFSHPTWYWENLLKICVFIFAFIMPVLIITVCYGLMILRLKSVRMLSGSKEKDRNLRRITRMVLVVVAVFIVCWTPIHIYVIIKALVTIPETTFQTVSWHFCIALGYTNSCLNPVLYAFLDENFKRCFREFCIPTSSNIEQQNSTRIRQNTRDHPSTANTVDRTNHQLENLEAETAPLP
# 5-hydroxytryptamine receptor 2A, sequence (P35363 whole entry): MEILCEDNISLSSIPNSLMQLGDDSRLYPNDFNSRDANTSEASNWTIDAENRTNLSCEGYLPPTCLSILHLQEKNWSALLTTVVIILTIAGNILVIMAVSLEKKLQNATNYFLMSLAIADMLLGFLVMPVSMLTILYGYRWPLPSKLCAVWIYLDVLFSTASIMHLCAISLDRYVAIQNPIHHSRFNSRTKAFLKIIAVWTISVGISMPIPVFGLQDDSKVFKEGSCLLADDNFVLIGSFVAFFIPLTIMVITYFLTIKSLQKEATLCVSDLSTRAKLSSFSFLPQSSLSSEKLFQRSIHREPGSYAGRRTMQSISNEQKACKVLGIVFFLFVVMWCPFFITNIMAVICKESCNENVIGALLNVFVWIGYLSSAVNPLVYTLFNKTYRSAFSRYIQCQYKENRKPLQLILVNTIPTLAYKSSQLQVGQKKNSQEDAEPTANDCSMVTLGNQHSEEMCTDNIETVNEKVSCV
# FAD-linked sulfhydryl oxidase ALR, sequence (P55789 whole entry): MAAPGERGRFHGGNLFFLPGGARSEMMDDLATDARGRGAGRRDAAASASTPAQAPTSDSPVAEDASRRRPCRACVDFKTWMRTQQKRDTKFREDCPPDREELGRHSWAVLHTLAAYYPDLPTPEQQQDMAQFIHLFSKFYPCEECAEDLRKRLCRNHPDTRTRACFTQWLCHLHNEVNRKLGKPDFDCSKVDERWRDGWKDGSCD
# ADP-ribosylation factor GTPase-activating protein 1, sequence (Q62848 whole entry): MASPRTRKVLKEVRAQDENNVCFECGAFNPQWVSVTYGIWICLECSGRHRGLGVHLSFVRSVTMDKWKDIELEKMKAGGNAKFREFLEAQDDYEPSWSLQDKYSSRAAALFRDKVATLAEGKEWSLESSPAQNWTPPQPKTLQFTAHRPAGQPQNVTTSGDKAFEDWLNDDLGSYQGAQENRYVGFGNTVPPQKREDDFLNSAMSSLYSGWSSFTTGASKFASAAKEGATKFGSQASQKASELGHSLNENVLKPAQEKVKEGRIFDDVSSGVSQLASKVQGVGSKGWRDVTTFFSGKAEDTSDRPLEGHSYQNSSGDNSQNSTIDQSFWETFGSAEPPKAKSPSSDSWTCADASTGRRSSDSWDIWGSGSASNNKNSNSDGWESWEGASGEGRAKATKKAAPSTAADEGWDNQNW
# Melanocortin receptor 4, sequence (P32245 whole entry): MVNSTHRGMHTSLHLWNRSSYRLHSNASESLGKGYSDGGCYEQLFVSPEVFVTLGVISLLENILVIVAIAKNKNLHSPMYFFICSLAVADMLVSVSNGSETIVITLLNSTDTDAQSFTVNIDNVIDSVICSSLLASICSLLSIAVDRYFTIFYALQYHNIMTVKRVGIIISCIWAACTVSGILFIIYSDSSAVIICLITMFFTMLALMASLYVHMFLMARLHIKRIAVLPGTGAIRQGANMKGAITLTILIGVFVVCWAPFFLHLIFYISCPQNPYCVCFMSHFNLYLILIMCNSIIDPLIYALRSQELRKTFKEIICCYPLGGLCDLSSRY
# Kallikrein-7, sequence (P49862 whole entry): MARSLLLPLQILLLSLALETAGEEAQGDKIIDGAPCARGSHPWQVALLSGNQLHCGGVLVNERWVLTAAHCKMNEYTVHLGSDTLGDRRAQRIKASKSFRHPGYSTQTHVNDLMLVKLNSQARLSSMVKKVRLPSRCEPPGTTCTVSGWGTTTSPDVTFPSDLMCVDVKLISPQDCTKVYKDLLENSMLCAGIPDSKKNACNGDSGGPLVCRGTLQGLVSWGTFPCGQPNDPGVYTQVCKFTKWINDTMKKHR
# 72 kDa type IV collagenase, sequence (P08253 whole entry): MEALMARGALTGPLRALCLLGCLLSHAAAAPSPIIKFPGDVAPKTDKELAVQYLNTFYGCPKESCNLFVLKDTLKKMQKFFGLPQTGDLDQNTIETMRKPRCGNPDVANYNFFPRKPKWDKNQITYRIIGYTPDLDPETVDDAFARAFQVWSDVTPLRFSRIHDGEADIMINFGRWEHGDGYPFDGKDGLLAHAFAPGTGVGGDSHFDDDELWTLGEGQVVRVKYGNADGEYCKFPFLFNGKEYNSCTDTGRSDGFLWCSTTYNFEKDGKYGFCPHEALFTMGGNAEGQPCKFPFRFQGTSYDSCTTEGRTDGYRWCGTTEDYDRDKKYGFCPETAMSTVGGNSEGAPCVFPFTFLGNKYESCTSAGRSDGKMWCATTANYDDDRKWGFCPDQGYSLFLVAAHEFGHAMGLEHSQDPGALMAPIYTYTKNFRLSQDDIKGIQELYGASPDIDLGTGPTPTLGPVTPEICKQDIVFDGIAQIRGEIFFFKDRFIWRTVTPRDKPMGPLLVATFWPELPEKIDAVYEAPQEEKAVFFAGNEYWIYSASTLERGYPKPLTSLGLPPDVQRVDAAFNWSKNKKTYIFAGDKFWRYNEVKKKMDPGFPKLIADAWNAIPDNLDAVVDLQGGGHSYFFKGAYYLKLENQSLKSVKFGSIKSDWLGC
# Caspase-6, sequence (P55212 24-179 limits assumed): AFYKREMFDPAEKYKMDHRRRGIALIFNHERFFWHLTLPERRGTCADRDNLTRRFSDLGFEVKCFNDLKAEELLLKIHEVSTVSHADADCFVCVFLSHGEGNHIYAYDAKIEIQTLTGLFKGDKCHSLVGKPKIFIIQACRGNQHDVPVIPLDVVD
# Caspase-6, sequence (P55212 194-293 limits assumed): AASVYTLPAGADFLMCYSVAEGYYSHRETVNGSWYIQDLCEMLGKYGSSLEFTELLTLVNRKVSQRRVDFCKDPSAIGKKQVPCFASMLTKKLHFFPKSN
# 26S proteasome non-ATPase regulatory subunit 14, sequence (O00487 whole entry): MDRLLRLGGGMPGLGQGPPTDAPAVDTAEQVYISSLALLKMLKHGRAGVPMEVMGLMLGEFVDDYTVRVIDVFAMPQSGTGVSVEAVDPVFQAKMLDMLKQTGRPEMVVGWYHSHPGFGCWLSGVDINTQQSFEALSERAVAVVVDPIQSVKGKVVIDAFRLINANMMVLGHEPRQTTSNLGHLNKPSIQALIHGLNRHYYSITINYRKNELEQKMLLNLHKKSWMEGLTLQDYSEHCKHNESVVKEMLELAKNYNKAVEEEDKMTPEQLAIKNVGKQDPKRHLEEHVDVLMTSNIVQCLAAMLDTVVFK
# Oxysterols receptor LXR-beta, sequence (P55055 whole entry, the tested form may be a part): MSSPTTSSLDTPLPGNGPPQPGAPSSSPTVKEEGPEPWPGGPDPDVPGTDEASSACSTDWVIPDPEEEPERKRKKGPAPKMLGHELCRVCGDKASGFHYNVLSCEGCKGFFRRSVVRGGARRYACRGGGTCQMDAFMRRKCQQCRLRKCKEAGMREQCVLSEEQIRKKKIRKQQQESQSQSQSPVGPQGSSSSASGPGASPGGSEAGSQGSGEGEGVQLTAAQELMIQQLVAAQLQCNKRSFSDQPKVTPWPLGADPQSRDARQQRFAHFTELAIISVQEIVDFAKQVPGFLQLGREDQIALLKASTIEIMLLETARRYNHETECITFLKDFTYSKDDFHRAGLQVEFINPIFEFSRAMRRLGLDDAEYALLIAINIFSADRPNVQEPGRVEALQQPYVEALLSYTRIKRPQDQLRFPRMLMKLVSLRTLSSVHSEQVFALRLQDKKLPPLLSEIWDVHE
smiles,measurement,setting,value
Cc1ccc2nc(NC(=O)C3CCN(S(=O)(=O)c4ccc5c(c4)oc(=O)n5C)CC3)sc2c1,AC50,[1],11.1 µM (active)
same,AC50,[2],7.23 µM (active)
same,AC50,[3],29.1 µM (active)
same,AC50,[4],54.7 µM (active)
same,AC50,[5],3.35 µM (active)
O=C(NNC(=S)NC(=O)c1cccs1)c1ccc(NC(=O)c2ccccc2)cc1,IC50,[6],51.9 µM (inactive)
same,EC50,[7],0.479 µM (active)
same,EC50,Streptococcus,6.3 µM (active)
CN(CC(=O)Nc1ccc(F)c(F)c1F)C(=O)CCc1nc(O)c2c3c(sc2n1)CCCC3,IC50,Prothrombin,61.3 µM (active)
same,IC50,[8],46.5 µM (active)
same,AC50,Caspase-6,18.6 µM (active)
same,IC50,[9],> 100 µM (inactive)
COc1cccc(CNC(=O)c2ccc3c(c2)N(C)CCS3)c1OC,EC50,Kallikrein-7,> 69.5 µM (inactive)
Cc1oc(-c2ccc(Cl)cc2)nc1CN1CCCC(C(=O)NCc2ccco2)C1 (stereo not given),EC50,[10],> 120 µM (not active)
same,EC50,[11],> 120 µM (not active)
same,AC50,[12],1.3 µM (active)
same,EC50,[13],> 120 µM (not active)
same,AC50,[14],6.37 µM (active)
CCOc1ccc(Cn2c3ccc(OC)cc3c3nc4ccccc4nc32)cc1OC,IC50,[15],6.92 µM (active)
same,IC50,[16],12.8 µM (active)
same,EC50,Melanocortin receptor 4,> 89.2 µM (inactive)
C=CCOc1ccc(/C=C/C(=O)Nc2ccc(C(=O)NC)cc2)cc1,IC50,[17],52.2 µM (inactive)
COc1ccccc1C(=O)NCCN1CCN(c2ccccc2)CC1,EC50,Mu-type opioid receptor,92.5 µM (inactive)
same,AC50,[18],3.86 µM (active)
same,EC50,[19],0.662 µM (active)
CC(=O)Nc1ccc(S(=O)(=O)N2CCCCC2c2cccnc2)cc1 (stereo not given),EC50,[20],0.0233 µM (active)
same,EC50,[21],262 nM (active) and 107 nM (active)
Nc1nn(-c2cccc(F)n2)cc1-c1ccccc1,EC50,[22],> 67.5 µM (inactive)
CCCOC(=O)c1c(-c2ccc(OC)cc2)oc2ccc(-c3ccc(OC)nc3)cc12,EC50,[23],> 29.9 µM (inactive)
same,IC50,[24],> 29.9 µM (inactive)

# Reference: ChEMBL document CHEMBL1201862, “PubChem BioAssay data set” (2004)
